According to PMC5546605 (PLoS ONE, 2017):

Columns and labels:
[1] = molecular target: T1, cellular prion protein (PrP^C) (Homo sapiens, UniProt P04156); test: biochemical; format: binding
T1 construct: gene PRNP

[2] = molecular target: T2, cellular prion protein (PrP^C) (Mus musculus, UniProt P04925); test: biochemical; format: binding
T2 construct: gene Prnp
T2 sequence (P04925 23-230 limits assumed): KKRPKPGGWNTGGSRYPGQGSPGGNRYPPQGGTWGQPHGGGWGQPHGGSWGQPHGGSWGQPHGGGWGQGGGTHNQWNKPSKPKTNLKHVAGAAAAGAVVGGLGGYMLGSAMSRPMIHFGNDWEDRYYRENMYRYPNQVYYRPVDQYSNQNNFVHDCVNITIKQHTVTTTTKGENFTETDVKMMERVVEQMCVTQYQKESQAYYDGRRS

CN(C)CCCN1c2ccccc2Sc2ccc(Cl)cc21 [CPZ, chlorpromazine]
Kd [1]: 421 µM
Kd [2]: > 100 µM
